According to the supplement of paper PMC13380429:

What was measured:
[1] = tested on: Calu-3; experiment: cell viability relative to DMSO; higher = less toxic; conditions: 72 h
[2] = tested on: Vero E6; experiment: as above; conditions: 72 h
[3] = tested on: Caco-2; experiment: as above; conditions: 72 h
[4] = tested on: HepG2; experiment: as above; conditions: 72 h
[5] = tested on: A549-ACE2; experiment: drug-induced phospholipidosis relative to tamoxifen; higher = more phospholipidosis
[6] = tested on: A549-ACE2 infected with SARS-CoV-2; experiment: cell count relative to DMSO; higher = less toxic; conditions: 24 h
[7] = tested on: Calu-3; experiment: drug sensitivity score (DSS) for viability; higher = more toxic; extreme values may be limits of the assay; conditions: 72 h
[8] = tested on: Vero E6; experiment: as above; conditions: 72 h
[9] = tested on: Caco-2; experiment: as above; conditions: 72 h
[10] = tested on: HepG2; experiment: as above; conditions: 72 h
[11] = tested on: Calu-3; experiment: relative viability EC50 (midpoint between 100% and the lowest measured viability); higher = less toxic; conditions: 72 h
[12] = tested on: Vero E6; experiment: as above; conditions: 72 h
[13] = tested on: Caco-2; experiment: as above; conditions: 72 h
[14] = tested on: HepG2; experiment: as above; conditions: 72 h
[15] = tested on: A549-ACE2 infected with SARS-CoV-2; experiment: SARS-CoV-2 infection rate relative to DMSO; higher = more infection; conditions: 24 h
[16] = tested on: A549-ACE2 infected with SARS-CoV-2; experiment: morphology score (similarity to uninfected cells); higher = more like uninfected cells; conditions: 24 h
[17] = tested on: U2OS; experiment: cell viability relative to DMSO; higher = less toxic; conditions: 72 h
[18] = tested on: A549-ACE2; experiment: phospholipidosis EC50; higher = less potent phospholipidosis inducer; conditions: 24 h
[19] = tested on: U2OS; experiment: drug sensitivity score (DSS) for viability; higher = more toxic; extreme values may be limits of the assay; conditions: 72 h
[20] = tested on: U2OS; experiment: relative viability EC50 (midpoint between 100% and the lowest measured viability); higher = less toxic; conditions: 72 h

CC(=O)N(O)[C@@H]1c2cc(C#N)ccc2OC(C)(C)[C@H]1O
Conditions	SARS-CoV-2 infection rate, [15] [%]	cell count, [6] [%]	cell viability, [1] [%]	cell viability, [2] [%]	cell viability, [3] [%]	cell viability, [4] [%]	morphology score, [16]
1 nM	–	–	103	94.6	102	101	–
10 nM	–	–	90.8	102	86.8	108	–
100 nM	–	–	89.9	96.5	93.1	95.8	–
0.3 µM	93	105	–	–	–	–	0.26
1000 nM	–	–	102	102	104	107	–
3 µM	77	107	–	–	–	–	0.56
10000 nM	–	–	95.2	95.6	99.7	105	–
10 µM	40	119	–	–	–	–	0.81
30 µM	36	116	–	–	–	–	0.82

drug-induced phospholipidosis [%], [5]
Conditions	0.3 µM	0.833333 µM	3.33333 µM	6.66667 µM	10 µM	30 µM
24 h	5.83	-1.4	-3.17	0.06	-1.41	3.58
48 h	5.86	-0.55	-0.21	-2.36	-0.04	3.92
72 h	1.36	-4.06	-1.89	-2.87	0.112	6.24

Conditions	drug sensitivity score	relative viability EC50 [µM]
[7]	0	–
[8]	0	–
[9]	0	–
[10]	0	–
[11]	–	> 10
[12]	–	> 10
[13]	–	> 10
[14]	–	> 10

C[C@@H]1C[C@H]2[C@@H]3CCC4=CC(=O)C=C[C@]4(C)[C@@]3(Cl)[C@@H](O)C[C@]2(C)[C@@]1(OC(=O)c1ccco1)C(=O)CCl [MOMETASONE FUROATE]
Conditions	SARS-CoV-2 infection rate, [15] [%]	cell count, [6] [%]	cell viability, [1] [%]	cell viability, [2] [%]	cell viability, [3] [%]	cell viability, [4] [%]	cell viability, [17] [%]	morphology score, [16]
1 nM	–	–	98.7	109	91.3	114	98.5	–
10 nM	–	–	101	100	109	116	101	–
100 nM	–	–	90.3	103	85.6	122	94	–
0.3 µM	99	97	–	–	–	–	–	0.19
1000 nM	–	–	97.1	102	96	97.4	102	–
3 µM	69	103	–	–	–	–	–	0.42
10000 nM	–	–	90.9	100	83.1	105	92.8	–
10 µM	28	108	–	–	–	–	–	0.6
30 µM	71	94	–	–	–	–	–	0.34

Conditions	drug sensitivity score	phospholipidosis EC50 [µM]	relative viability EC50 [µM]
[7]	0	–	–
[8]	0	–	–
[9]	0.5	–	–
[10]	0	–	–
[11]	–	–	> 10
[12]	–	–	> 10
[13]	–	–	> 10
[14]	–	–	> 10
[18]	–	3.35	–
[19]	0	–	–
[20]	–	–	> 10

drug-induced phospholipidosis [%], [5]
Conditions	0.3 µM	0.833333 µM	3.33333 µM	6.66667 µM	10 µM	30 µM
24 h	10.4	17.5	33.2	53.3	54.9	51.9
48 h	5.23	13.8	27.7	41.1	38.5	41.2
72 h	-4	-3.08	16.9	30.4	39.5	29.6

C=C1C(=O)O[C@@H]2[C@H]3O[C@]3(C)CC/C=C(\C)CC[C@@H]12 [parthenolide-(alternate-stereo)]
Conditions	SARS-CoV-2 infection rate, [15] [%]	cell count, [6] [%]	cell viability, [1] [%]	cell viability, [2] [%]	cell viability, [3] [%]	cell viability, [4] [%]	cell viability, [17] [%]	morphology score, [16]
1 nM	–	–	102	102	98.5	102	100	–
10 nM	–	–	108	99.7	95.8	95.7	101	–
100 nM	–	–	97.3	102	96.8	103	99.4	–
0.1 µM	101	101	–	–	–	–	–	0.0167
0.3 µM	99.3	102	–	–	–	–	–	0.157
1000 nM	–	–	109	102	98.67	94.2	97.7	–
1 µM	104	100	–	–	–	–	–	-0.0567
3 µM	105	97.7	–	–	–	–	–	-0.3
10000 nM	–	–	128	52.3	45.4	22.5	12.2	–

drug-induced phospholipidosis [%], [5]
Conditions	0.3 µM	0.833333 µM	3.33333 µM	6.66667 µM	10 µM
24 h	1.51	0.313	6.15	18.1	24
48 h	1.04	-0.06	2.1	11.9	16.9
72 h	3.01	-1.59	-0.616	4.96	9.42

Conditions	drug sensitivity score	relative viability EC50 [µM]
[7]	0.733	–
[8]	2.37	–
[9]	3.07	–
[10]	5.27	–
[13]	–	2.99
[14]	–	2.48
[19]	5.23	–
[20]	–	2.94
